# Like-named read-outs stand apart in the source and are kept apart here.
# Tests used:
# A2780 cells = assay: In-vitro cell proliferation assay (SRB), A2780 cells; type: cell-based; conditions: read-out: A2780 IC50;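 note: viable cell number read as SRB absorbance, background from media-only wells subtracted, IC50 interpolated from percent inhibition at two bracketing compound concentrations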
# NAMPT = NAMPT (Homo sapiens (Human), UniProt P43490); assay: NAMPT biochemical inhibition assay (NMN quantified by mass spectrometry); conditions: NAMPT biochemical inhibition; read-out: Biochem IC50
# [1] = Homo sapiens, A2780, 72 h, A2780 cells, 72 hours, SRB
# Chain of NAMPT (P43490 whole entry): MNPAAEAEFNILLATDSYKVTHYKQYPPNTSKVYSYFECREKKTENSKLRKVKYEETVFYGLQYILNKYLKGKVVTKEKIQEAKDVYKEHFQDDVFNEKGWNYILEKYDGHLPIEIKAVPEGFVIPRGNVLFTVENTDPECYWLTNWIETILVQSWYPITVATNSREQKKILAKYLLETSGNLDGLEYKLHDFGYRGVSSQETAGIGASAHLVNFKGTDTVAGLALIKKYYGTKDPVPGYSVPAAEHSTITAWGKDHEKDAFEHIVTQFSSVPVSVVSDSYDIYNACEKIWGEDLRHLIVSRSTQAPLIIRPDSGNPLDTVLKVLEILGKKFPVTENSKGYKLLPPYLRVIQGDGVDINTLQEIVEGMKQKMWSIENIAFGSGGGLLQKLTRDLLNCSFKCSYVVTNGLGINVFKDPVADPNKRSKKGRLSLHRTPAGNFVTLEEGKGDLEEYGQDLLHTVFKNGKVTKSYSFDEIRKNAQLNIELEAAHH
SMILES,IC50 (A2780 cells; [1]) [nM],IC50 (NAMPT) [nM],further results
O=C(NCc1cccnc1)Nc1ccc(C(=O)c2ccccc2)cc1 [1-(4-benzoylphenyl)-3-(pyridin-3-ylmethyl)urea],735,–,–
O=C(NCc1cccnc1)Nc1ccc(S(=O)(=O)N2CC3CCC2C3)cc1 (centres unmarked) [1-(4-{2-azabicyclo[2.2.1]heptane-2-sulfonyl}phenyl)-3-(pyridin-3-ylmethyl)urea],236,10,–
O=C(NCc1cccnc1)Nc1ccc(S(=O)(=O)N2CCC3(CCOC3)CC2)cc1 [1-(4-{2-oxa-8-azaspiro[4.5]decane-8-sulfonyl}phenyl)-3-(pyridin-3-ylmethyl)urea],89,5,–
O=C(NCc1cccnc1)Nc1ccc(S(=O)(=O)N2CCCC(CN3CCCC3=O)C2)cc1 (centres unmarked) [1-(4-{3-[(2-oxopyrrolidin-1-yl)methyl]piperidine-1-sulfonyl}phenyl)-3-(pyridin-3-ylmethyl)urea],143,3,–
O=C(NCc1cccnc1)Nc1ccc(S(=O)(=O)N2CCC3(CCCCC3)CC2)cc1 [1-(4-{3-azaspiro[5.5]undecane-3-sulfonyl}phenyl)-3-(pyridin-3-ylmethyl)urea],145,11,–
"O=C(NCc1cccnc1)Nc1ccc(S(=O)(=O)N2Cc3cccc4cccc(c34)C2)cc1 [1-(4-{3-azatricyclo[7.3.1.0^5,^13]trideca-1(13),5,7,9,11-pentaene-3-sulfonyl}phenyl)-3-(pyridin-3-ylmethyl)urea]",–,2,"IC50 (A2780 cells; A2780 cells, 72 hours, SRB): 26 nM"
O=C(NCc1cccnc1)Nc1ccc(S(=O)(=O)N2C3CCC2COC3)cc1 [1-(4-{3-oxa-8-azabicyclo[3.2.1]octane-8-sulfonyl}phenyl)-3-(pyridin-3-ylmethyl)urea],287,–,–
O=C(NCc1cccnc1)Nc1ccc(S(=O)(=O)Nc2cccc(C(F)(F)F)c2)cc1 [1-(pyridin-3-ylmethyl)-3-(4-{[3-(trifluoromethyl)phenyl]sulfamoyl}phenyl)urea],–,6,–
O=C(NCc1cccnc1)Nc1cccc(S(=O)(=O)N2CCCCC2)c1 [1-[3-(piperidine-1-sulfonyl)phenyl]-3-(pyridin-3-ylmethyl)urea],> 30000,–,–
O=C(NCc1cccnc1)Nc1ccc(S(=O)(=O)N2CCN(c3ccccc3)CC2)cc1 [1-[4-(4-phenylpiperazine-1-sulfonyl)phenyl]-3-(pyridin-3-ylmethyl)urea],–,5,–
O=C(NCc1cccnc1)Nc1ccc(S(=O)(=O)N2CCC(c3ccccc3)CC2)cc1 [1-[4-(4-phenylpiperidine-1-sulfonyl)phenyl]-3-(pyridin-3-ylmethyl)urea],–,3,–
O=C(NCc1cc[nH]n1)Nc1ccc(S(=O)(=O)c2ccccc2)cc1 [1-[4-(benzenesulfonyl)phenyl]-3-(1H-pyrazol-3-ylmethyl)urea],> 20000,–,–
O=C(NCc1cccnc1)Nc1ccc(S(=O)(=O)N2CCOCC2)cc1 [1-[4-(morpholine-4-sulfonyl)phenyl]-3-(pyridin-3-ylmethyl)urea],1350,–,–
O=C(NCc1cccnc1)Nc1ccc(S(=O)(=O)N2CCCCC2)cc1 [1-[4-(piperidine-1-sulfonyl)phenyl]-3-(pyridin-3-ylmethyl)urea],167,–,–
Nc1cccc(CNC(=O)Nc2ccc(S(=O)(=O)c3ccccc3)cc2)c1 [1-[(3-aminophenyl)methyl]-3-[4-(benzenesulfonyl)phenyl]urea],2540,–,–
O=C(NCc1ccc(F)cc1)Nc1ccc(S(=O)(=O)N2CCCCC2)cc1 [1-[(4-fluorophenyl)methyl]-3-[4-(piperidine-1-sulfonyl)phenyl]urea],25000,–,–
NC(=O)C1CCN(S(=O)(=O)c2ccc(NC(=O)NCc3cccnc3)cc2)CC1 [1-[(4-{[(pyridin-3-ylmethyl)carbamoyl]amino}benzene)sulfonyl]piperidine-4-carboxamide],1480,–,–
Nc1ccc(CNC(=O)Nc2ccc(S(=O)(=O)c3ccccc3)cc2)cn1 [1-[(6-aminopyridin-3-yl)methyl]-3-[4-(benzenesulfonyl)phenyl]urea],–,–,"IC50 (A2780 cells; Homo sapiens, A2780, 72 h): 81 nM"
O=C(NCc1cccnc1)Nc1ccc(S(=O)(=O)c2ccc(-n3cccn3)c(F)c2)cc1 [3-(4-{[3-fluoro-4-(1H-pyrazol-1-yl)benzene]sulfonyl}phenyl)-1-(pyridin-3-ylmethyl)urea],54,–,–
CN(Cc1ccc(F)cc1)S(=O)(=O)c1ccc(NC(=O)NCc2cccnc2)cc1 [3-(4-{[(4-fluorophenyl)methyl](methyl)sulfamoyl}phenyl)-1-(pyridin-3-ylmethyl)urea],–,3,–
"C[C@@H]1[C@@H](NS(=O)(=O)c2ccc(NC(=O)NCc3cccnc3)cc2)C[C@H]2C[C@@H]1C2(C)C [3-(pyridin-3-ylmethyl)-1-(4-{[(1S,2S,3S,5R)-2,6,6-trimethylbicyclo[3.1.1]heptan-3-yl]sulfamoyl}phenyl)urea]",96,–,–
O=C(NCc1cccnc1)Nc1ccc(S(=O)(=O)c2ccccn2)cc1 [3-(pyridin-3-ylmethyl)-1-[4-(pyridine-2-sulfonyl)phenyl]urea],869,–,–
O=C(NCc1cccnc1)Nc1ccc(S(=O)(=O)N2CCCC2)cc1 [3-(pyridin-3-ylmethyl)-1-[4-(pyrrolidine-1-sulfonyl)phenyl]urea],1400,–,–
"C[C@@H]1CN(S(=O)(=O)c2ccc(NC(=O)NCc3cccnc3)cc2)C[C@H](C)O1 [rel-3-{4-[(2R,6S)-2,6-dimethylmorpholine-4-sulfonyl]phenyl}-1-(pyridin-3-ylmethyl)urea]",13.5,–,–

# Further lines, with some results ahead:
IC50 (A2780 cells; [1]) [nM],IC50 (NAMPT) [nM],SMILES,further results
101,2,"O=C(NCc1cccnc1)Nc1ccc(S(=O)(=O)N2CC[C@H]3CCCC[C@@H]3C2)cc1 (relative stereo) [rel-3-{4-[(4aR,8aS)-decahydroisoquinoline-2-sulfonyl]phenyl}-1-(pyridin-3-ylmethyl)urea]",–
247,–,Cn1cc(S(=O)(=O)c2ccc(NC(=O)NCc3cccnc3)cc2)cn1 [3-[4-(1-methyl-1H-pyrazole-4-sulfonyl)phenyl]-1-(pyridin-3-ylmethyl)urea],–
254,–,CC1CCN(S(=O)(=O)c2ccc(NC(=O)NCc3cccnc3)cc2)CC1 [3-[4-(4-methylpiperidine-1-sulfonyl)phenyl]-1-(pyridin-3-ylmethyl)urea],–
139,–,O=C(NCc1cccnc1)Nc1ccc(S(=O)(=O)N2CCCCCC2)cc1 [3-[4-(azepane-1-sulfonyl)phenyl]-1-(pyridin-3-ylmethyl)urea],–
1620,–,O=C(NCc1cccnc1)Nc1ccc(S(=O)(=O)N2CCC2)cc1 [3-[4-(azetidine-1-sulfonyl)phenyl]-1-(pyridin-3-ylmethyl)urea],–
27500,–,O=C(Nc1ccc(S(=O)(=O)c2ccccc2)cc1)Nc1cccnc1 [3-[4-(benzenesulfonyl)phenyl]-1-(pyridin-3-yl)urea],–
27600,–,CN(C)c1ccc(CNC(=O)Nc2ccc(S(=O)(=O)c3ccccc3)cc2)cn1 [3-[4-(benzenesulfonyl)phenyl]-1-{[6-(dimethylamino)pyridin-3-yl]methyl}urea],–
661,–,O=C(NCCc1cccnc1)Nc1ccc(S(=O)(=O)N2CCCCC2)cc1 [3-[4-(piperidine-1-sulfonyl)phenyl]-1-[2-(pyridin-3-yl)ethyl]urea],–
> 30000,–,O=C(NCc1ccccc1F)Nc1ccc(S(=O)(=O)N2CCCCC2)cc1 [3-[(2-fluorophenyl)methyl]-1-[4-(piperidine-1-sulfonyl)phenyl]urea],–
> 30000,–,O=C(NCc1cccc(F)c1)Nc1ccc(S(=O)(=O)N2CCCCC2)cc1 [3-[(3-fluorophenyl)methyl]-1-[4-(piperidine-1-sulfonyl)phenyl]urea],–
752,–,O=C(NCc1cncc(F)c1)Nc1ccc(S(=O)(=O)N2CCCCC2)cc1 [3-[(5-fluoropyridin-3-yl)methyl]-1-[4-(piperidine-1-sulfonyl)phenyl]urea],–
> 30000,–,O=C(NCc1ccccc1)Nc1ccc(S(=O)(=O)N2CCCCC2)cc1 [3-benzyl-1-[4-(piperidine-1-sulfonyl)phenyl]urea],–
–,8,O=C(NCc1cccnc1)Nc1ccc(S(=O)(=O)c2ccc(F)cc2Cl)cc1 [3-{4-[(2-chloro-4-fluorobenzene)sulfonyl]phenyl}-1-(pyridin-3-ylmethyl)urea],–
–,8,O=C(NCc1cccnc1)Nc1ccc(S(=O)(=O)Nc2ccccc2F)cc1 [3-{4-[(2-fluorophenyl)sulfamoyl]phenyl}-1-(pyridin-3-ylmethyl)urea],–
–,3,O=C(NCc1cccnc1)Nc1ccc(S(=O)(=O)Nc2cccc(Br)c2)cc1 [3-{4-[(3-bromophenyl)sulfamoyl]phenyl}-1-(pyridin-3-ylmethyl)urea],–
–,1,O=C(NCc1cccnc1)Nc1ccc(S(=O)(=O)Nc2cccc(Cl)c2)cc1 [3-{4-[(3-chlorophenyl)sulfamoyl]phenyl]-1-(pyridin-3-ylmethyl)urea],–
–,10,Cc1cccc(NS(=O)(=O)c2ccc(NC(=O)NCc3cccnc3)cc2)c1 [3-{4-[(3-methylphenyl)sulfamoyl]phenyl}-1-(pyridin-3-ylmethyl)urea],–
105,–,C[C@H]1CCCN(S(=O)(=O)c2ccc(NC(=O)NCc3cccnc3)cc2)C1 [3-{4-[(3S)-3-methylpiperidine-1-sulfonyl]phenyl}-1-(pyridin-3-ylmethyl)urea],–
–,7,CCc1ccc(NS(=O)(=O)c2ccc(NC(=O)NCc3cccnc3)cc2)cc1 [3-{4-[(4-ethylphenyl)sulfamoyl]phenyl}-1-(pyridin-3-ylmethyl)urea],–
–,7,CC(C)CN(C)S(=O)(=O)c1ccc(NC(=O)NCc2cccnc2)cc1 [3-{4-[methyl(2-methylpropyl)sulfamoyl]phenyl}-1-(pyridin-3-ylmethyl)urea],–
–,7,CN(Cc1cccc(C(F)(F)F)c1)S(=O)(=O)c1ccc(NC(=O)NCc2cccnc2)cc1 [3-{4-[methyl({[3-(trifluoromethyl)phenyl]methyl})sulfamoyl]phenyl}-1-(pyridin-3-ylmethyl)urea],–
2260,–,O=C(NCc1ccc(S(=O)(=O)N2CCCCC2)cc1)Nc1cccnc1 [3-{[4-(piperidine-1-sulfonyl)phenyl]methyl}-1-(pyridin-3-yl)urea],–
547,–,O=C(NCc1ccc(S(=O)(=O)N2CCCCC2)cc1)NCc1cccnc1 [3-{[4-(piperidine-1-sulfonyl)phenyl]methyl}-1-(pyridin-3-ylmethyl)urea],–

# — patent US11279687B2, “Compounds and compositions for the inhibition of NAMPT” (Valo Health, Inc., priority 2010, dated 2022)
